The text below walks through data of US5371102A, “Compositions and methods of inhibiting thyroid activity” (priority 1993, dated 1994).

SMILES strings stand for the structures.

In one test the test system is LPX and TPX. In words: suicide inhibition of peroxidases (summary statements). It is filed as biochemical.
Test [1] deals with T1, LPX (Bos taurus, UniProt P80025).
T1 construct: purchased Sigma Chemical Company
In words: LPX-catalyzed iodide ion oxidation (triiodide formation). It is filed as biochemical, bovine. Particulars: LPX, H2O2, iodide ion. The text has this:
Materials used in the examples below were obtained from the following sources. Bovine LPX, bovine liver catalase, glucose oxidase, 30% hydrogen peroxide, glucose, guaiacol, ABTS and deuterium oxide were purchased from Sigma Chemical Company. Selenium dioxide, MBI ^13 CH3 I and PBA were purchased from Aldrich Chemical Company and PBA was purified as previously described by Fieset et al., Reagents for Organic Synthesis, Vol. I, pp.135-139, John Wiley and Sons, N.Y. (1967). LPX purity was checked by PAGE, as described by Doerge, D.R., et al. in, Biochem. Pharmacol., Vol.36, pp.972-974 (1986). TPX was purified from hog thyroids obtained from a local slaughterhouse by published procedures. Doerge & Takazowa, Chemical Research in Toxicology, Vol. 3, pp. 98-101 (1990). TPX purity was determined by LC and its concentration determined spectophotometrically. Hydroperoxide concentrations were determined by iodometric titration, as described by Kolthoff, et al., in "Quantitative Chemical Analysis", Macmillan, London, pp.842-860 (1969). MMBI, and BI were synthesized by published procedures as described by Doerge, D.R., Biochem, Vol. 27, pp. 3697-3700 (1988) and were recrystallized from aqueous ethanol. MeBI was purified by distillation and DMeBI^+ was synthesized and purified by recrystallization from ethyl acetate/methanol. 1-^13 C-MMBI was synthesized from ^13 CH3 I according to the procedure disclosed by Doerge, D.R., in, J. Lab. Comp. and Radiopharm., Vol.25, pp.985-990 (1988). PPHP and PPA were prepared, purified and analyzed as previously described by Doerge, Biochem, Vol.27, p.11 (1988). The methyl ester of 1-methyl-benzimidazole-2-sulfinic acid was prepared by addition of hydrogen peroxide (5 equivalents of a 10 M solution) to MMBI (0.1 M) in methanol. […]
Inhibition of LPX activity by thiones was determined from the kinetics of iodide ion, guaiacol or ABTS oxidation assays conducted at 25° C. Kinetic parameters of suicide inactivation were determined as previously described. […]

The subject of a further test is peroxidase. As to the kind of experiment: peroxidase/H2O2/I- triiodide formation with DMIT. Type of test: biochemical. Particulars: H2O2 and I-, varying quantities of DMIT. As to the method:
DMIT was synthesized according to the published method by Maier, Helv. Chim. Acta, Vol. 53, p. 1417 (1970). Varying quantities of DMIT were incubated with peroxidase, H2 O2 and I^-. Triiodide formation was observed spectrophotometrically as a function of time. […] An initial lag phase was dependent on the amount of thione used, followed by a rate increase to approximately the control rate.

Test [2] has as its target T1, LPX. As to the kind of experiment: LPX iodide ion oxidation activity after incubation and dilution. It is filed as biochemical, bovine. The note with it: LPX/hydrogen peroxide, absence of iodide ion. The text has this: Materials used in the examples below were obtained from the following sources. Bovine LPX, bovine liver catalase, glucose oxidase, 30% hydrogen peroxide, glucose, guaiacol, ABTS and deuterium oxide were purchased from Sigma Chemical Company. Selenium dioxide, MBI ^13 CH3 I and PBA were purchased from Aldrich Chemical Company and PBA was purified as previously described by Fieset et al., Reagents for Organic Synthesis, Vol. I, pp.135-139, John Wiley and Sons, N.Y. (1967). LPX purity was checked by PAGE, as described by Doerge, D.R., et al. in, Biochem. Pharmacol., Vol.36, pp.972-974 (1986). TPX was purified from hog thyroids obtained from a local slaughterhouse by published procedures. Doerge & Takazowa, Chemical Research in Toxicology, Vol. 3, pp. 98-101 (1990). TPX purity was determined by LC and its concentration determined spectophotometrically. Hydroperoxide concentrations were determined by iodometric titration, as described by Kolthoff, et al., in "Quantitative Chemical Analysis", Macmillan, London, pp.842-860 (1969). MMBI, and BI were synthesized by published procedures as described by Doerge, D.R., Biochem, Vol. 27, pp. 3697-3700 (1988) and were recrystallized from aqueous ethanol. MeBI was purified by distillation and DMeBI^+ was synthesized and purified by recrystallization from ethyl acetate/methanol. 1-^13 C-MMBI was synthesized from ^13 CH3 I according to the procedure disclosed by Doerge, D.R., in, J. Lab. Comp. and Radiopharm., Vol.25, pp.985-990 (1988). PPHP and PPA were prepared, purified and analyzed as previously described by Doerge, Biochem, Vol.27, p.11 (1988). The methyl ester of 1-methyl-benzimidazole-2-sulfinic acid was prepared by addition of hydrogen peroxide (5 equivalents of a 10 M solution) to MMBI (0.1 M) in methanol. The products, MeBI and the ester, were obtained following preparative TLC on silica (Uniplate, Analtech Co., Newark, DL) using 5% methanol/chloroform as eluant.
The following experiment was performed to determine the effect of DMMBI oxidation on LPX activity. LPX (0.1 μM, final concentration) was incubated with hydrogen peroxide (100 μM), iodide ion (5 mM) and DMMBI (100 μM), as indicated in Table 2. After a 100 second incubation at 25° C., an aliquot was diluted 200-fold and the iodide ion oxidation activity determined. Values shown in Table 2, are averages +/- standard deviations (n=4) of the percentage relative to untreated LPX.

For the compound `CN1CCN(C)C1=S` [DMIT, 1,3-dimethylimidazolidine-2-thione], in the test on LPX and TPX (alternate substrate mechanism), the “selectivity for iodide ion oxidation” value was “block only reactions involving iodide ion oxidation”. In the test with LPX and TPX (summary of own examples), the suicide inhibition entry is “not suicide inhibitors”. In addition, at LPX [1], the “inhibition of iodide ion oxidation (triiodide formation)” value was “Identical results”. Further, in the test on peroxidase, the “effect on triiodide formation” value was “substantially the same as reported for DMMBI in Example 1 and Ac2 MBI in Example 2”. For the same compound, the “loss of enzymatic activity” value at LPX [2] was “did not cause any loss of enzymatic activity”.
